The text below walks through data of patent US20140023611A1 (priority 2010, published 2014).

The target in this experiment is T1, rat NaP2b (SLC34A2) (Rattus norvegicus, UniProt Q9JJ09).
T1 construct: host or cells: HEK293
T1 sequence (Q9JJ09 1-695): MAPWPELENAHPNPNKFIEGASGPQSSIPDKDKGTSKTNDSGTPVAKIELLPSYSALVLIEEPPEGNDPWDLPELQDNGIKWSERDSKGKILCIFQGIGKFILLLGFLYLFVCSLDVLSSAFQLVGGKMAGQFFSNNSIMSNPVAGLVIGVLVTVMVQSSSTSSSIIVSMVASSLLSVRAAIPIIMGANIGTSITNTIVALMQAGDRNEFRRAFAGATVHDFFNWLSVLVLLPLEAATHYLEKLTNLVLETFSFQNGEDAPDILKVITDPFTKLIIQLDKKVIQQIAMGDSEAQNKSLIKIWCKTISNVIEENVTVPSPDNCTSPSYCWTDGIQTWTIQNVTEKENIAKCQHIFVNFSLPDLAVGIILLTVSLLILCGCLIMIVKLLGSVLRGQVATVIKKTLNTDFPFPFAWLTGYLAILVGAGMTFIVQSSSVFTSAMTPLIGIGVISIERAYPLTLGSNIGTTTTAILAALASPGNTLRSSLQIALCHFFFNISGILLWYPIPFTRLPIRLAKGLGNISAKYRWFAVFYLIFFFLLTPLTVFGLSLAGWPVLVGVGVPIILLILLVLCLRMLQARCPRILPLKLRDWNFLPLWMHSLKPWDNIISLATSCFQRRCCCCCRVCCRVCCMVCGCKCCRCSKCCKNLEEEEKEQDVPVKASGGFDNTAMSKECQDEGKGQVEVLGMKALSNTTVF
Briefly: Inhibition of NaP2b-mediated Pi (33P) uptake in transfected HEK293 cells, rat NaP2b. Type of experiment: cell-based. The following applies: 33P Pi uptake, 0.1 mM phosphate, value given as pIC50 range. How it is done:
HEK293 cells were obtained from the American Type Culture collection and propagated per their instructions. […] The sequence of the human protein was mutated to insert a threonine after residue 37, and to introduce a N39D mutation.
Cells were seeded into 96-well plates at 25,000 cells/well and cultured overnight. Lipofectamine 2000 (Invitrogen) was used to introduce the NaP2b cDNA, and the cells were allowed to approach confluence during a second overnight incubation. […] Each compound was tested at twelve concentrations ranging from 0.1 nM to 30 uM. Assays were run in duplicate.
Cells were lysed by addition of 20 μL 0.1% Tween 80 followed by 100 μL scintillation fluid, and counted using a TopCount (Perkin Elmer).
pIC50 (the negative log of the IC50) values of the test compounds were calculated using GraphPad Prism.
`CC(=O)NC1CCN(C(=O)c2cccc(C(=O)Nc3ccc(N4CCCCC4)cc3-c3cc(C(=O)NCc4cccc(C(F)(F)F)c4)ccn3)c2)C1` (stereo in doubt) [Example 4.10, (S)-2-(2-(3-(3-Acetamidopyrrolidine-1-carbonyl)benzamido)-5-(piperidin-1-yl)phenyl)-N-(3-(trifluoromethyl)benzyl)isonicotinamide] had an IC50 of 10 to 31.6 µM.

Consider `COCCNC(=O)C1CCCN(Cc2cccc(C(=O)Nc3ccc(N4CCCCC4)cc3-c3cc(C(=O)NCc4cccc(C(F)(F)F)c4)ccn3)c2)C1` (stereo in doubt) [Example 12.1, (S)-2-(2-(3-((3-((2-Methoxyethyl)carbamoyl)piperidin-1-yl)methyl)benzamido)-5-(piperidin-1-yl)phenyl)-N-(3-(trifluoromethyl)benzyl)isonicotinamide], for which the IC50 is 1 to 7.94 µM.

Compound `COCCNC(=O)C1CCCN(Cc2cccc(C(=O)Nc3ccc(N4CCCCC4)cc3-c3cc(C(=O)NCc4cccc(C(F)(F)F)c4)ccn3)c2)C1` (stereo in doubt) [Example 12.2, (R)-2-(2-(3-((3-((2-Methoxyethyl)carbamoyl)piperidin-1-yl)methyl)benzamido)-5-(piperidin-1-yl)phenyl)-N-(3-(trifluoromethyl)benzyl)isonicotinamide] had an IC50 of 10 to 31.6 µM.

Regarding `O=C(O)CCSCc1cccc(C(=O)Nc2ccc(N3CCCCC3)cc2-c2cc(C(=O)NCc3ccc(C(F)(F)F)nc3)ccn2)c1` [Example 1.2, 3-((3-((4-(Piperidin-1-yl)-2-(4-(((6-(trifluoromethyl)pyridin-3-yl)methyl)carbamoyl)pyridin-2-yl)phenyl)carbamoyl)benzyl)thio)propanoic acid], the half-maximal inhibitory concentration (IC50) was 10 to 31.6 µM.

`CC(C)(C)c1ccc(CNC(=O)c2ccnc(-c3cc(N4CCCCC4)ccc3NC(=O)c3cccc(CSCCC(=O)O)c3)c2)cc1` [Example 1.3, 3-((3-((2-(4-((4-(Tert-butyl)benzyl)carbamoyl)pyridin-2-yl)-4-(piperidin-1-yl)phenyl)carbamoyl)benzyl)thio)propanoic acid] gave an IC50 of 1 to 7.94 µM.

The compound `O=C(O)CCSCc1cccc(C(=O)Nc2ccc(N3CCCCC3)cc2-c2cc(C(=O)NCCc3cccc(C(F)(F)F)c3)ccn2)c1` [Example 1.5] gave an IC50 of 1 to 7.94 µM.

Turning to `CCCCCCCNC(=O)c1ccnc(-c2cc(N3CCCCC3)ccc2NC(=O)c2cccc(CSCCC(=O)O)c2)c1` [Example 1.6], the IC50 was 1 to 7.94 µM.

For the compound `O=C(O)CCSCc1cccc(C(=O)Nc2ccc(N3CCCCC3)cc2-c2cc(C(=O)NCC3CCCCC3)ccn2)c1` [Example 1.7], the IC50 was 1 to 7.94 µM.

As to `CC(C)CNC(=O)c1ccnc(-c2cc(N3CCCCC3)ccc2NC(=O)c2cccc(CSCCC(=O)O)c2)c1` [Example 1.8], the half-maximal inhibitory concentration (IC50) was 10 to 31.6 µM.

With `CN(C)c1ccc(CNC(=O)c2ccnc(-c3cc(N4CCCCC4)ccc3NC(=O)c3cccc(CSCCC(=O)O)c3)c2)cc1` [Example 1.10], the IC50 is 1 to 7.94 µM.

Take `Nc1ccccc1CNC(=O)c1ccnc(-c2cc(N3CCCCC3)ccc2NC(=O)c2cccc(CSCCC(=O)O)c2)c1` [Example 1.11]: the IC50 is 10 to 31.6 µM.

Turning to `O=C(O)CCSCc1cccc(C(=O)Nc2ccc(N3CCCCC3)cc2-c2cc(C(=O)NCc3cccc4ccccc34)ccn2)c1` [Example 1.12], the IC50 was 1 to 7.94 µM.

In the case of `O=C(O)CCSCc1cccc(C(=O)Nc2ccc(N3CCCCC3)cc2-c2cc(C(=O)NC3CCCc4ccccc43)ccn2)c1` (centres unmarked) [Example 1.13], the IC50 was 1 to 7.94 µM.

Take `O=C(O)CCSCc1cccc(C(=O)Nc2ccc(N3CCCCC3)cc2-c2cc(C(=O)NCc3ccc(N4CCCCC4)cc3)ccn2)c1` [Example 1.14]: the IC50 was 1 to 7.94 µM.

In turn, `O=C(O)CCSCc1cccc(C(=O)Nc2ccc(N3CCCCC3)cc2-c2cc(C(=O)NCc3cccc(N4CCCCC4)c3)ccn2)c1` [Example 1.15] gave an IC50 of 1 to 7.94 µM.

`O=C(O)CCSCc1cccc(C(=O)Nc2ccc(N3CCCCC3)cc2-c2cc(C(=O)NCc3cccc(CN4CCOCC4)c3)ccn2)c1` [Example 1.16] gave a 50% inhibitory concentration (IC50) of 10 to 31.6 µM.

With `Cc1ccc(Cl)cc1CNC(=O)c1ccnc(-c2cc(N3CCCCC3)ccc2NC(=O)c2cccc(CSCCC(=O)O)c2)c1` [Example 1.17], the IC50 is 1 to 7.94 µM.

`Cc1ccc(CNC(=O)c2ccnc(-c3cc(N4CCCCC4)ccc3NC(=O)c3cccc(CSCCC(=O)O)c3)c2)o1` [Example 1.18] gave an IC50 of 1 to 7.94 µM.

Take `O=C(O)CCSCc1cccc(C(=O)Nc2ccc(N3CCCCC3)cc2-c2cc(C(=O)Nc3nc4ccccc4[nH]3)ccn2)c1` [Example 1.19]: the IC50 is 10 to 31.6 µM.

`O=C(O)CCSCc1cccc(C(=O)Nc2ccc(N3CCCCC3)cc2-c2cc(C(=O)Nc3ccc4ncsc4c3)ccn2)c1` [Example 1.20] showed an IC50 of 10 to 31.6 µM.

`O=C(O)CCSCc1cccc(C(=O)Nc2ccc(N3CCCCC3)cc2-c2cc(C(=O)NCc3cccc(-n4cccn4)c3)ccn2)c1` [Example 1.21] had an IC50 of 10 to 31.6 µM.

As to `O=C(O)CCSCc1cccc(C(=O)Nc2ccc(N3CCCCC3)cc2-c2cc(C(=O)NCc3ccc4c(c3)OCCCO4)ccn2)c1` [Example 1.22], the IC50 was 1 to 7.94 µM.

As to `O=C(O)CCSCc1cccc(C(=O)Nc2ccc(N3CCCCC3)cc2-c2cc(C(=O)NCc3ccc4c(c3)OCO4)ccn2)c1` [Example 1.23], the IC50 is 1 to 7.94 µM.

Consider `O=C(O)CCSCc1cccc(C(=O)Nc2ccc(N3CCCCC3)cc2-c2cc(C(=O)NCc3ccc4c(c3)CCO4)ccn2)c1` [Example 1.24], for which the IC50 is 1 to 7.94 µM.

The compound `O=C(O)CCSCc1cccc(C(=O)Nc2ccc(N3CCCCC3)cc2-c2cc(C(=O)NCc3ccc(F)c(OC(F)(F)F)c3)ccn2)c1` [Example 1.25] had an IC50 of 1 to 7.94 µM.

Compound `O=C(O)CCSCc1cccc(C(=O)Nc2ccc(N3CCCCC3)cc2-c2cc(C(=O)NCc3ccc(OC(F)(F)F)c(F)c3)ccn2)c1` [Example 1.26] gave an IC50 of 1 to 7.94 µM.

As for `COc1ccc(CNC(=O)c2ccnc(-c3cc(N4CCCCC4)ccc3NC(=O)c3cccc(CSCCC(=O)O)c3)c2)cc1C(F)(F)F` [Example 1.27], the IC50 was 10 to 31.6 µM.

`O=C(O)CCSCc1cccc(C(=O)Nc2ccc(N3CCCCC3)cc2-c2cc(C(=O)NCc3ccc(F)c(C(F)(F)F)c3)ccn2)c1` [Example 1.28] gave an IC50 of 1 to 7.94 µM.

For `O=C(O)CCSCc1cccc(C(=O)Nc2ccc(N3CCCCC3)cc2-c2cc(C(=O)NCc3cc(F)cc(C(F)(F)F)c3)ccn2)c1` [Example 1.29], the IC50 was 1 to 7.94 µM.

As to `O=C(O)CCSCc1cccc(C(=O)Nc2ccc(N3CCCCC3)cc2-c2cc(C(=O)NCc3cc(C(F)(F)F)ccc3F)ccn2)c1` [Example 1.30], the half-maximal inhibitory concentration (IC50) was 1 to 7.94 µM.

Consider `O=C(O)CCSCc1cccc(C(=O)Nc2ccc(N3CCCCC3)cc2-c2cc(C(=O)NCc3cccc(C(F)(F)F)c3F)ccn2)c1` [Example 1.31], for which the half-maximal inhibitory concentration (IC50) was 1 to 7.94 µM.

The compound `O=C(O)CCSCc1cccc(C(=O)Nc2ccc(N3CCCCC3)cc2-c2cc(C(=O)NCc3ccc(Cl)c(C(F)(F)F)c3)ccn2)c1` [Example 1.33] gave an IC50 of 1 to 7.94 µM.

As for `O=C(O)CCSCc1cccc(C(=O)Nc2ccc(N3CCCCC3)cc2-c2cc(C(=O)NC3CCc4ccccc43)ccn2)c1` (centres unmarked) [Example 1.34], the half-inhibitory concentration (IC50) is 1 to 7.94 µM.

For `O=C(O)CCSCc1cccc(C(=O)Nc2ccc(N3CCCCC3)cc2-c2cc(C(=O)NC3Cc4ccccc4C3)ccn2)c1` [Example 1.35], the IC50 was 1 to 7.94 µM.

`O=C(O)CCSCc1cccc(C(=O)Nc2ccc(N3CCCCC3)cc2-c2cc(C(=O)NC(c3ccccc3)c3ccccc3)ccn2)c1` [Example 1.36]: the IC50 was 1 to 7.94 µM.
